Laboratory results from paper PMC10744032, “Regioselective and Stereoselective Synthesis of Parthenolide Analogs by Acyl Nitroso-Ene Reaction and Their Biological Evaluation against Mycobacterium tuberculosis” (International Journal of Molecular Sciences, 2023).
In brackets after ≈: the same amount, converted by molar mass. Read-outs that look alike come from different tables or passages of the source.

Columns and labels:
M. tuberculosis H37Rv = assay: microbe, parasite or virus in culture; format: cell-based, Mycobacterium tuberculosis; settings: 7 days incubation, resazurin readout, tested 300 to 2.3 µM, read-out: MIC90 M. tuberculosis (REMA)
[1] = system: M. tuberculosis H37Rv expressing GFP (H37Rv::pJKD6); assay: microbe, parasite or virus in culture; format: cell-based, Mycobacterium tuberculosis; settings: for MIC: Mycobacterium tuberculosis, H37RV, 168 h, read-out: MIC98 M. tuberculosis (GFP)
[2] = system: Staphylococcus aureus (SH1000); assay: microbe, parasite or virus in culture; format: cell-based; settings: 5 h incubation, resazurin readout, tested 300 to 2.3 µM, read-out: MIC90 S. aureus (REMA)
[3] = Kinetic solubility in PBS by LC-MS/MS; format: physicochemical
Method: The kinetic solubility was determined using LC–MS/MS analysis in PBS at pH 7.4. Briefly, a 10 mM 100% DMSO solution of the compound was diluted 50-fold either in PBS at pH 7.4 (in triplicate) or in DMSO in polypropylene tubes (n = 3 for PBS and n = 6 for DMSO). The tubes were gently shaken for 24 h at 21 °C. Then, the three PBS tubes and three of the six DMSO tubes were centrifuged for 5 min at 4000 rpm and filtered over 0.45 μm filters (Millex-LH Millipore). Then, 40 μL of each solution was diluted in 160 μL of MeCN and 40 µL of Milli-Q water and transferred to matrix tubes for the LC–MS/MS analysis. The solubility was determined according to the following formula: Solubility (μM) = (AUC (filtered PBS)/AUC (not filtered DMSO)) × 200. The test was validated if (AUC (not filtered DMSO) − AUC (filtered DMSO))/AUC (not filtered DMSO) ≤ 10%.

M. tuberculosis strains = system: M. tuberculosis strains; design: method as in PMID 9747541; settings: cited from earlier work
[4] = Cytotoxicity by live imaging (Hoechst 33342 / propidium iodide); format: cell-based; settings: mouse
Method: (§1) The cytotoxicity of the compounds to BALB/3T3 cells was determined using live imaging following both Hoechst 33342 and propidium iodide staining. Briefly, BALB/3T3 cells were seeded in a 384-well plate and 24 h later, the compounds were added (0, 12.5, 25, 50, and 100 µM) to the culture medium, as well as Hoechst 33342 and propidium iodide (PI). Then, 24 h and 48 h after the compounds were added, live imaging was performed using an In Cell Analyzer 6000 (STP GE Healthcare, Glascow, UK). The cytotoxicity was defined based on the ratio of the population of dead or dying cells (propidium iodide staining) to the total cell population (Hoechst staining), as determined using Columbus software 2.9.1 (PerkinElmer Informatics, WA, USA). The compounds were tested in triplicate. Carfilzomib (500, 250, 140, and 60 nM) was used as the positive control in this assay.

BALB/3T3 cells = assay: as above; format: cell-based; settings: BALB/3T3 cells; 0, 12.5, 25, 50, 100 µM; imaging at 24 h and 48 h; read-out: Cytotoxicity Balb3T3 CC50
Method: as §1

[5] = Mycobacterium tuberculosis, H37RV, 168 h
[6] = 21 °C, pH 7.4, aqueous buffer, kinetic from dmso stock

Compound | MIC90 (M. tuberculosis H37Rv; [5]) [µM] | MIC [1] [µM] | MIC90 ([2]; Staphylococcus aureus) [µM] | solubility at 24 h [3, 6] [µM] | minimum inhibitory concentration (MIC) against M. tuberculosis strains (M. tuberculosis strains) [µg/mL] | CC50 [4] [µM] | MIC90 (M. tuberculosis H37Rv) [µM] | MIC98 M. tuberculosis (GFP) [1] [µM] | MIC90 [2] [µM] | solubility at 24 h ([3]; kinetic solubility, PBS pH 7.4, 24 h at 21 °C, from 10 mM DMSO solution diluted 50-fold, read-out: Solubility) [µM] | CC50 (BALB/3T3 cells) [µM]
C=C1C(=O)O[C@H]2[C@H]1CC/C(C)=C/CC[C@@]1(C)O[C@@H]21 [Compound 1, Parthenolide] | 9.4 to 19 (≈ 2.33 to 4.72 µg/mL) | 9.4 to 19 (≈ 2.33 to 4.72 µg/mL) | > 300 | 135 (≈ 33.5 µg/mL) | 16 (≈ 64.4 µM) | > 100 |  |  |  |  | 
C=C1CC[C@H]2C(=C)C(=O)O[C@@H]2[C@@H]2O[C@]2(C)CC[C@H]1N(O)C(=O)OCc1ccccc1 [Compound 14, Benzyl-N-hydroxy-N-[(1S,2S,4R,7R,11S)-4-methyl-8,12-dimethylene-13-oxo-3,14-dioxatricyclo[9.3.0.02,4]tetradecan-7-yl]carbamate] | 75 (≈ 31 µg/mL) | 38 (≈ 15.7 µg/mL) | > 300 | 191 (≈ 79 µg/mL) |  | > 12.5 |  |  |  |  | 
tert-butyl-N-hydroxy-N-[(1S,2S,4R,7R,11S)-4-methyl-8,12-dimethylene-13-oxo-3,14-dioxatricyclo[9.3.0.02,4]tetradecan-7-yl]carbamate [Compound 12] |  |  |  |  |  |  | 38 | 19 to 38 | >300 | 176 | > 100
C=C1CC[C@H]2C(=C)C(=O)O[C@@H]2[C@@H]2O[C@]2(C)CC[C@H]1N(O)C(=O)Nc1ccc(C)cc1 [Compound 5, 1-hydroxy-1-[(1S,2S,4R,7R,11S)-4-methyl-8,12-dimethylene-13-oxo-3,14-dioxatricyclo[9.3.0.02,4]tetradecan-7-yl]-3-(p-tolyl)urea] | 19 to 38 (≈ 7.84 to 15.7 µg/mL) | 19 (≈ 7.84 µg/mL) | > 300 | 186 (≈ 76.7 µg/mL) |  | 12.5 |  |  |  |  | 
